Patent EP0108285B1, “Antiviral purine derivatives” (THE WELLCOME FOUNDATION LIMITED, priority 1982, dated 1984)
Values after ≈ are worked out from the molar mass of the structure shown. One block for each compound: values may come before it.

Tests used:
[1] = physchem; assay type: physicochemical; conditions: water
From the text: This improved water-solubility enables 6-deoxyacyclovir to be used in a greater variety of aqueous pharmaceutical formulations which require some solubilisation of the drug.

[2] = Urinary excretion of acyclovir after oral dosing of rats (radioimmunoassay); assay type: in vivo, Long Evans male rats; conditions: rat, dose 25 mg/kg, urine samples, read-out: %Dose Excreted as Acyclovir
Experimental: The following experiments carried out to determine the urinary excretion and plasma levels of acyclovir after oral dosing of rats with acyclovir, 6-deoxyacyclovir and the 6-amino analogue thereof i.e. 2,6-diamino-9-(2-hydroxyethoxymethyl)-purine, hereinafter referred to as aminoacyclovir.
Long Evans male rats were dosed by intragastric needle with the drug and placed in metabolic cages which separated urine from faeces. The collected urine and plasma samples were analyzed for acyclovir content by a radioimmunoassay.

[3] = tested on: ICI strain of herpes simplex virus Type 1; assay: Antiviral activity in mice infected intracerebrally with herpes simplex virus; assay type: in vivo, CD1 mice; conditions: for Survival Times (Days) / Mean Reciprocal Survival times: 100mg/kg/dose; for Survival Times (Days): 2-3 hours after infection and twice daily for 4 days, observed over 14 days, groups of 10 mice; for Mean Reciprocal Survival times: virus controls 0.407
Experimental: The mice were divided into groups of 10, one group acting as untreated virus controls and the other groups receiving respectively (A) acyclovir at 100mg/kg/dose (i) subcutaneously (s.c.) (ii) orally (iii) intraperitoneally (i.p.) (B) the compound of Example 1 (6-deoxyacyclovir) at 100mg/kg/dose i) subcutaneously (s.c.) ii) orally iii) intraperitoneally (i.p.). The treatment groups received dosages of the drug 2-3 hours after infection and twice daily for 4 days. Observations were made over 14 days survival times were recorded.

[4] = Toxicity study in beagle dogs, per os; assay type: in vivo; conditions: 40mg/kg/day for 5 consecutive days, sacrificed at end of treatment or after a 2-week post-dose period
Experimental: Two male and 2 female beagle dogs were given 6-deoxyacyclovir per os ([…] daily for 5 consecutive days) at a dose level of 40mg/kg/day. There were no effects in 1 male and 1 female sacrificed at the end of the treatment period or in 1 male and 1 female sacrificed after a 2-week post-dose period.

[5] = biological target: T1, xanthine oxidase (Bos taurus, UniProt P80457); assay: Oxidation by xanthine oxidase (enzyme studies); assay type: biochemical; conditions: xanthine oxidase from bovine milk; compared with 2-aminopurine
T1 construct: xanthine oxidase from bovine milk; from tissue; host or cells: bovine milk
From the text: The discovery that the 6-hydrogen purine above can be readily converted into its corresponding 6-hydroxy analogue is surprising since in previous studies with xanthine oxidase from bovine milk (H. Lettre et al (1967) Biochem. Pharmacol., 16, 1747-1755; T. A. Krenitsky et al (1972) Arch. Biophys., 150, 585-599), it was shown that 9-substitution obliterates or greatly diminishes the rate at which a variety of purines are oxidised.

T1 sequence (P80457 whole entry): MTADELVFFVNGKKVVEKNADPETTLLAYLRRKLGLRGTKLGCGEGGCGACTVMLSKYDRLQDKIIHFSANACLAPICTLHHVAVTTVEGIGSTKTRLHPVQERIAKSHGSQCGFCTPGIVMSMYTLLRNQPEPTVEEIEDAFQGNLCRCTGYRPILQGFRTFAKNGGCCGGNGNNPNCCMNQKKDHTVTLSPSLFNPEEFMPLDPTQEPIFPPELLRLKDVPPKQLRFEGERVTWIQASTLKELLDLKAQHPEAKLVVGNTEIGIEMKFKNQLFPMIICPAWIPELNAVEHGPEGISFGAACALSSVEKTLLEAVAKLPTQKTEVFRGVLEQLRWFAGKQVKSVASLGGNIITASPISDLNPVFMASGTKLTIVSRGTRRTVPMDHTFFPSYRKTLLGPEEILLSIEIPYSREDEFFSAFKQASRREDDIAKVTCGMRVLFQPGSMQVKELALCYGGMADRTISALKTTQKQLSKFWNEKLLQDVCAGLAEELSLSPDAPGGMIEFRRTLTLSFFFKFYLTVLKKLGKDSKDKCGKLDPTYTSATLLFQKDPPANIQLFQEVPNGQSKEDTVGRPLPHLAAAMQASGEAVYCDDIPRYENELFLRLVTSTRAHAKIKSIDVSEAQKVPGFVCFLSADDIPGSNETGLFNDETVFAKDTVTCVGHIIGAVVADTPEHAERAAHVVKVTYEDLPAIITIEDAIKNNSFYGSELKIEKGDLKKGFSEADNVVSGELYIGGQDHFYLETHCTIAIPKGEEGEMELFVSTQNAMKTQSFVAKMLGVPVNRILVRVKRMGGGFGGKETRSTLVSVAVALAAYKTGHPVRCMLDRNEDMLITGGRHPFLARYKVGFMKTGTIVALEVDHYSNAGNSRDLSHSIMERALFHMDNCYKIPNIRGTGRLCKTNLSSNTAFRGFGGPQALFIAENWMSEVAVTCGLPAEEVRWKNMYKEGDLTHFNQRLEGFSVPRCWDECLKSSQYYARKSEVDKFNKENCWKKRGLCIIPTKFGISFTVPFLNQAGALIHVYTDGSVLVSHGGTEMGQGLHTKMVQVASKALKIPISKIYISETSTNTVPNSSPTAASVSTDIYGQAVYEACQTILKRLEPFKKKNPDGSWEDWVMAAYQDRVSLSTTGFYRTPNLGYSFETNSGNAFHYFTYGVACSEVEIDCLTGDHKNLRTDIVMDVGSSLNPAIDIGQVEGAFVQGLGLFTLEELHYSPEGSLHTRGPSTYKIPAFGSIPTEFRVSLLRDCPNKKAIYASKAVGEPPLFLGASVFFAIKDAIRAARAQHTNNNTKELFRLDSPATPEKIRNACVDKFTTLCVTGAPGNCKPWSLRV

solubility [1]: 1.23 mg/mL (≈ 5.46 mM)
dose excreted at 48 h [2]: 19.2%
SMILES: Nc1nc2c(ncn2COCCO)c(=O)[nH]1 [Acyclovir, 9-(2-hydroxyethoxymethyl)guanine, reference compound]
Survival Times (Days) ([3]; i.p.): 2+2 2+4 2+5 2+7 1 survivor
Mean Reciprocal Survival times ([3]; i.p.): 0.242
Mean Reciprocal Survival times ([3]; oral): 0.325
Mean Reciprocal Survival times ([3]; s.c.): 0.261

SMILES: Nc1ncc2ncn(COCCO)c2n1 [6-Deoxyacyclovir, 2-Amino-9-(2-hydroxyethoxymethyl)-9H-purine]
effects (toxicity) [4]: no effects
rate of oxidation by the enzyme [5]: faster rate than the 9- unsubstituted purine
solubility [1]: 50 mg/mL (≈ 239 mM)
antiviral action compared with acyclovir ([3]; administered orally): more effective action than acyclovir
Mean Reciprocal Survival times ([3]; i.p.): 0.233
Survival Times (Days) ([3]; oral): 1+2 1+4 2+5 3+6 1+8 1 survivor
Mean Reciprocal Survival times ([3]; oral): 0.186
Mean Reciprocal Survival times ([3]; s.c.): 0.289
